Test system: AKT phosphorylation at T308 in PC-3 cells
Assay: Phospho-AKT (T308) ELISA in PC3 cells
Format: cell-based
Settings: Homo sapiens, 6 hours compound treatment, in at least one experimental run, read-out: IC50 for inhibition of AKT phosphorylation at T308 in PC-3 cells
Experimental: Phospho-AKT (S473, T308, Total AKT) and phospho-RSK ELISA
PC3 cells (ATCC, Manassas, Va.) were plated in 96-well flat bottom plates (Corning, Lowell, Mass.) at a density of 15,000 cells/well in RPMI 1640 medium supplemented with 10% FBS. Cells were incubated at 37° C., 5% CO2 for 18-20 h. Compounds (dissolved in 100% DMSO) were diluted in an 11-point 3-fold dilution in DMSO. Compound dilution stocks were further diluted in RPMI 1640 with 10% FBS and added to each cell well. DMSO without compound was used in control wells. Final concentration of DMSO in each well was 0.15%. After 6 hours at 37° C. cells were washed with cold PBS (without calcium or magnesium) and lysed in lysis buffer (Meso Scale Discovery, Gaithersburg, Md.) supplemented with 1 protease inhibitor tablet/10 ml (Roche, Indianapolis, Ind.), 10 mM NaF, and 200 μl/10 ml Sigma phosphatase inhibitor 1 & 2 (Sigma Aldrich, St Louis, Mo.) for 30 min at 4° C. All washes were performed on a Bio Tek ELx405 plate washer (Bio Tek Instruments, Winooski, Vt.).
ELISA plates (Meso Scale Discovery; AKT Duplex, cat. N41100B-1; phospho AKT, cat. N411CAB-1; RSK, cat. N41ZB-1) were prepared by the addition of blocking buffer (3% Blocker A diluted in wash buffer (Meso Scale Discovery) for AKT duplex assay and phospho AKT assays; 5% Blocker A/1% Blocker B in Tris-buffered saline for RSK) for 1 hour and washed with wash buffer. Lysates were transferred to assay wells and incubated overnight at 4° C. Following washing with wash buffer, detection buffer (1% Blocker A in wash buffer for AKT duplex and phospho AKT or 1% Blocker A in TBS for RSK) with appropriate antibodies was added. Detection of AKT duplex and phospho AKT was carried out using a sulfo-tagged detection antibodies (Meso Scale Discovery). Detection of phospho-RSK was carried out sequentially with anti phospho-RSK1 (S221)/RSK2 (S227) (R&D systems, Minneapolis, Minn., cat. AF892) and goat anti-rabbit sulfo-tag antibody (cat R32AB-1; Meso Scale Discovery). Plates were incubated for 1 hour at room temperature and washed with wash buffer. Plates were read on a SECTOR™ Imager 6000 (Meso Scale Discovery) using Workbench software (Meso Scale Discovery) following addition of read buffer (Meso Scale Discovery) to each well. For analysis, phospho-AKT (S473) signals were normalized to total AKT, while phospho-AKT (T308) and phospho-RSK signals were analyzed without normalization. All values were expressed as percent of the DMSO-treated controls. IC50s were determined from inhibition curves using XLfit4 software (IDBS, Guildford, UK).

| Structure (SMILES) | IC50 |
| --- | --- |
| C[C@@H]1CO[C@H](C(=O)Nc2ccccc2)CN1c1cc(-c2ccc3c(N)n[nH]c3c2)nc(N)n1 [Example 67, (2S,5R)-4-[2-Amino-6-(3-amino-1H-indazol-6-yl)-4-pyrimidinyl]-5-methyl-N-phenyl-2-morpholinecarboxamide] | < 1000 nM |
| CNc1nc(-c2ccc3c(N)n[nH]c3c2)cc(N2C[C@@H](C(=O)Nc3ccccc3)CC[C@H]2C)n1 [Example 77, (3S,6R)-1-[6-(3-amino-1H-indazol-6-yl)-2-(methylamino)-4-pyrimidinyl]-6-methyl-N-phenyl-3-piperidinecarboxamide] | < 1000 nM |
| CNc1nc(-c2ccc3c(N)n[nH]c3c2)cc(N2C[C@@H](C(=O)NC3CCCCC3)CC[C@H]2C)n1 [Example 78, (3S,6R)-1-[6-(3-Amino-1H-indazol-6-yl)-2-(methylamino)-4-pyrimidinyl]-N-cyclohexyl-6-methyl-3-piperidinecarboxamide] | < 1000 nM |
| CNc1nc(-c2ccc3cn[nH]c3c2)cc(N2C[C@@H](C(=O)NCc3ccccc3)CC[C@H]2C)n1 [Example 81, (3S,6R)-1-[6-(1H-Indazol-6-yl)-2-(methylamino)-4-pyrimidinyl]-6-methyl-N-(phenylmethyl)-3-piperidinecarboxamide] | < 1000 nM |
| CC1CCC(NC(=O)[C@H]2CC[C@@H](C)N(c3cc(-c4ccc5c(N)n[nH]c5c4)nc(N)n3)C2)CC1 (stereo partly drawn) [Example 150, (3S,6R)-1-[2-Amino-6-(3-amino-1H-indazol-6-yl)-4-pyrimidinyl]-6-methyl-N-(4-methylcyclohexyl)-3-piperidinecarboxamide] | < 1000 nM |
| C[C@@H]1C[C@@H](NC(=O)OC(C)(C)C)CN(c2cc(-c3ccc4c(N)n[nH]c4c3)nc(N)n2)C1 [Example 212, 1,1-Dimethylethyl{(3R,5R)-1-[2-amino-6-(3-amino-1H-indazol-6-yl)-4-pyrimidinyl]-5-methyl-3-piperidinyl}carbamate] | < 1000 nM |

Continued, values first:

| IC50 | Structure (SMILES) |
| --- | --- |
| < 1000 nM | CNc1nc(-c2ccc3c(N)n[nH]c3c2)cc(N2CC(C(=O)NC3CCCCC3)CCC2C(F)(F)F)n1 (stereo not drawn) [Example 49, Cis-1-[6-(3-Amino-1H-indazol-6-yl)-2-(methylamino)-4-pyrimidinyl]-N-cyclohexyl-6-(trifluoromethyl)-3-piperidinecarboxamide] |
| < 1000 nM | CNc1nc(-c2cc(F)c3c(N)n[nH]c3c2)cc(N2C[C@@H](C(=O)NCc3ccccc3)CC[C@H]2C)n1 [Example 86, (3S,6R)-1-[6-(3-Amino-4-fluoro-1H-indazol-6-yl)-2-(methylamino)-4-pyrimidinyl]-6-methyl-N-(phenylmethyl)-3-piperidinecarboxamide] |
| < 1000 nM | C[C@@H]1CC[C@H](C(=O)NC2CCCCC2)CN1c1cc(-c2ccc3c(N)n[nH]c3c2)nc(N)n1 [Example 121, (3S,6R)-1-[2-Amino-6-(3-amino-1H-indazol-6-yl)-4-pyrimidinyl]-N-cyclohexyl-6-methyl-3-piperidinecarboxamide] |
| < 1000 nM | CC[C@@H]1CO[C@H](C(=O)NCc2ccccc2)CN1c1cc(-c2ccc3c(N)n[nH]c3c2)nc(NC)n1 [Example 176, (2S,5R)-4-[6-(3-Amino-1H-indazol-6-yl)-2-(methylamino)-4-pyrimidinyl]-5-ethyl-N-(phenylmethyl)-2-morpholinecarboxamide] |

— US8697685B2, “Chemical compounds” (GlaxoSmithKline LLC, priority 2008, dated 2014)
